Where two headings read alike, the source gives them in different places. Blank lines part the entries; values can stand above or below the compound they belong to.
Experiments:
resistant E. coli = test: MIC in Mueller-Hinton II broth, antibiotic + BisEDT; type: cell-based, Escherichia coli
Excerpt: Chloramphenicol and ampicillin resistant Escherichia coli were made sensitive to these drugs by the addition of subMIC BisEDT (Table 24).
Tetracycline resistant Escherichia coli were made sensitive to doxycycline by the addition of subMIC BisEDT (Table 25).

S. aureus = test: Broth dilution MIC/MBC, BT-antibiotic combinations; type: cell-based, Staphylococcus aureus
Description: (§1) Materials & Methods. Susceptibility studies were performed by broth dilution in 96-well tissue culture plates (Nalge Nunc International, Denmark) in accordance with NCCLS protocols (National Committee for Clinical Laboratory Standards. (1997). Methods for Dilution Antimicrobial Susceptibility Tests for Bacteria that Grow Aerobically: Approved Standard M7-A2 and Informational Supplement M100-S10. NCCLS, Wayne, Pa., USA).
(§2) Briefly, overnight bacterial cultures were used to prepare 0.5 McFarland standard suspensions, which were further diluted 1:50 (˜2×10^6 cfu/mL) in cation-adjusted Mueller-Hinton broth medium (BBL, Cockeysville, Md., USA). BTs (prepared as described above) and antibiotics were added at incremental concentrations, keeping the final volume constant at 0.2 mL. Cultures were incubated for 24 h at 37° C. and turbidity was assessed by absorption at 630 nm using an ELISA plate reader (Biotek Instruments, Winooski, Vt., USA) according to the manufacturer's recommendations. […] Viable bacterial counts (cfu/mL) were determined by standard plating on nutrient agar.
(§3) The checkerboard method was used to assess the activity of antimicrobial combinations. The fractional inhibitory concentration index (FICI) and the fractional bactericidal concentration index (FBCI) were calculated, according to Eliopoulos et al. (Eliopoulos and Moellering, (1996) Antimicrobial combinations. In Antibiotics in Laboratory Medicine (Lorian, V., Ed.), pp. 330-96, Williams and Wilkins, Baltimore, Md., USA). Synergy was defined as an FICI or FBCI index of […], no interaction at >0.5-4 and antagonism at >4 (Odds, F C (2003) Synergy, antagonism, and what the chequerboard puts between them. Journal of Antimicrobial Chemotherapy 52:1). Synergy was also defined conventionally as ≧4-fold decrease in antibiotic concentration.

S. epidermidis [1] = test: Broth dilution MIC/MBC, BT-antibiotic combinations; type: cell-based, Staphylococcus epidermidis
Description: as §1, §2, §3

[2] = test system: S. epidermidis S2400-1 biofilm; test: Biofilm prevention, BisEDT-antibiotic combinations; type: cell-based, Staphylococcus epidermidis
Description: (§4) S. epidermidis grown in TSB+2% glucose in polystyrene plates for 48 h at 37° C. Gatifloxacin (GF), clindamycin (CM), minocycline (MC), gentamicin (GM), vancomycin (VM), cefazolin (CZ), nafcillin (NC), and rifampicin (RP). […]

S. epidermidis biofilm = test: Biofilm prevention concentration (BPC), BisEDT and antibiotics; type: cell-based, Staphylococcus epidermidis; settings: 0.05 μg/ml BisEDT
Description: as §4

S. epidermidis [3] = test: Growth inhibition (MIC) and MBC, BisEDT and antibiotics; type: cell-based, Staphylococcus epidermidis
Excerpt: Results are expressed as the mean change in MIC (dilution steps) with increasing BisEDT (n=3). See legend in FIG. 5 for antibiotic definitions.
The MIC change was most pronounced for clindamycin and gentamicin, followed by vancomycin, cefazolin, minocycline, gatifloxacin and nafcillin, with rifampicin unaffected.
Minimum bactericidal concentration (MBC) for most antibiotics tested against S. epidermidis decreased slightly with subMIC BisEDT. […] Clindamycin is a bacteriostatic agent, which explains its lack of bactericidal activity. Cefazolin resistance was reversed with respect to the MBC [Domenico et al., 2003]. These effects were additive.

[4] = test system: S. epidermidis (methicillin-susceptible and methicillin-resistant); test: Graft infection rat model, quantitative graft culture; type: in vivo; settings: rats, s.c. Dacron graft, explanted at 7 days, 0.1 mg/l BTs, 10 mg/l RIP, 10 mg/l rifampin
Description: As summarized in Table 21, implants impregnated with 0.1 μg/ml BisEDT, 10 μg/ml RIP and 10 μg/ml rifampin, alone or combined were implanted s.c. into rats. Physiological solution (1 ml) containing the MS and MR strains at 2×10^7 cfu/ml was inoculated onto the graft surface using a tuberculin syringe. All grafts were explanted at 7 days following implantation and sonicated for 5 minutes in sterile saline solution to remove the adherent bacteria. Quantitation of viable bacteria was obtained by culturing dilutions on blood agar plates. The limit of detection was approximately 10 cfu/cm^2.

[5] = test system: B. cepacia (B. multivorans, B. cenocepacia); test: MIC and FIC index, tobramycin + BisEDT; type: cell-based, Burkholderia cepacia; settings: 0.4 μg/ml BisEDT
[6] = test system: Staphylococcus aureus (SA, MRSA); test: Single-point BisEDT-antibiotic combination FICI; type: cell-based
Enterococcus faecalis = test: Single-point BisEDT-antibiotic combination FICI; type: cell-based; settings: E Fc 3121
Escherichia coli = test: Single-point BisEDT-antibiotic combination FICI; type: cell-based; settings: EC 2232
Klebsiella pneumoniae = test: Single-point BisEDT-antibiotic combination FICI; type: cell-based; settings: KP 1231
Pseudomonas aeruginosa = test: Single-point BisEDT-antibiotic combination FICI; type: cell-based; settings: PA 1380
Burkholderia cepacia = test: Single-point BisEDT-antibiotic combination FICI; type: cell-based; settings: Bcep 1756
Bukholderia multivorans = test: Single-point BisEDT-antibiotic combination FICI; type: cell-based; settings: Bmult 5665
Acinetobacter baumanii = test: Single-point BisEDT-antibiotic combination FICI; type: cell-based; settings: Abau 2594
[7] = test system: Streptococcus pneumoniae (SP, PRSP); test: Single-point BisEDT-antibiotic combination FICI; settings: PRSP 5348
[8] = S. aureus ATCC 25923, BE = 0.2 μg/ml BisEDT
[9] = S. epidermidis S2400-1, BisEDT 0.1 μg/ml
[10] = tobramycin-resistant Burkholderia cepacia

SMILES: CC1(C)S[C@@H]2[C@H](NC(=O)[C@H](N)c3ccccc3)C(=O)N2[C@H]1C(=O)O [AM, ampicillin]
- MIC (resistant E. coli; Escherichia coli, read-out: Drug + BE MIC, Chloramphenicol/Ampicillin resistant E. coli, BE 0.33 μg/ml): 49 µg/mL

SMILES: C[C@H]1c2cccc(O)c2C(=O)C2=C(O)[C@]3(O)C(=O)C(C(N)=O)=C(O)[C@@H](N(C)C)[C@@H]3[C@@H](O)[C@@H]21 [DOX, doxycycline]
- FIC, doxycycline + subMIC BisEDT (resistant E. coli; E. coli TET M and TET D strains): 0.5

SMILES: CO[C@H]1/C=C/O[C@@]2(C)Oc3c(C)c(O)c4c(O)c(c(/C=N/N5CCN(C)CC5)c(O)c4c3C2=O)NC(=O)/C(C)=C\C=C\[C@H](C)[C@H](O)[C@@H](C)[C@@H](O)[C@@H](C)[C@H](OC(C)=O)[C@@H]1C [Rifampin]
- Δ (S. aureus; MRSA S2446-3, BE = 0.2 μg/ml BisEDT): 1.0
- Synergy (S. aureus; [8]): + (Synergy was also defined conventionally as ≧4-fold decrease in antibiotic concentration)
- Δ (S. aureus; [8]): 13.0
- MIC (S. aureus; Staphylococcus aureus, ATCC25923, S. aureus ATCC 25923, antibiotic alone, read-out: MIC): 0.033 µg/mL
- MIC (S. aureus; Staphylococcus aureus, ATCC25923, S. aureus ATCC 25923, with 0.2 μg/ml BisEDT, read-out: MIC + BE): 0.003 µg/mL
- MIC (S. aureus; Staphylococcus aureus, MRSA, MRSA S2446-3, antibiotic alone, read-out: MIC): 2.5 µg/mL
- MIC (S. aureus; Staphylococcus aureus, MRSA, MRSA S2446-3, with 0.2 μg/ml BisEDT, read-out: MIC + BE): 2.5 µg/mL
- Δ, MIC (S. epidermidis [1]; S. epidermidis ATCC 35984, 0.05 μg/ml BisEDT): 1.5
- MIC (S. epidermidis [1]; S. epidermidis ATCC 35984, BisEDT 0.0 μg/ml): 0.021 µg/mL
- MIC (S. epidermidis [1]; S. epidermidis ATCC 35984, BisEDT 0.05 μg/ml): 0.014 µg/mL
- Δ (0.05 BE), MIC (S. epidermidis [1]; S. epidermidis S2400-1, 0.05 μg/ml BisEDT): 0.75
- Δ (0.1 BE), MBC (S. epidermidis [1]; S. epidermidis S2400-1, 0.1 μg/ml BisEDT): 0.43
- MIC (S. epidermidis [1]; S. epidermidis S2400-1, BisEDT 0 μg/ml): 0.03 µg/mL
- MBC (S. epidermidis [1]; S. epidermidis S2400-1, BisEDT 0.0 μg/ml): 0.03 µg/mL
- MIC (S. epidermidis [1]; S. epidermidis S2400-1, BisEDT 0.05 μg/ml): 0.04 µg/mL
- MBC (S. epidermidis [1]; [9]): 0.07 µg/mL
- MIC (S. epidermidis [1]; [9]): 0.04 µg/mL
- Δ (0.05 BE), biofilm prevention ([2]; 0.05 μg/ml BisEDT): 0.7
- Biofilm Prevention (antibiotic concentration) ([2]; BisEDT 0 μg/ml): 0.03 µg/mL
- Biofilm Prevention (antibiotic concentration) ([2]; BisEDT 0.05 μg/ml): 0.04 µg/mL
- Biofilm Prevention (antibiotic concentration) ([2]; BisEDT 0.1 μg/ml): 0.04 µg/mL
- Change of biofilm prevention concentration (BPC) (S. epidermidis biofilm): remained unaffected
- Reduction in MBC with subMIC BisEDT (S. epidermidis [3]): remained largely unaffected
- MIC change (growth inhibition) with BisEDT (S. epidermidis [3]; 0.1 μg/ml (0.5 μM) BisEDT): unaffected
- Quantitative graft culture ([4]; methicillin-resistant S. epidermidis): 7.6 × 10^4 ± 2.1 × 10^4 cfu/cm^2
- Quantitative graft culture ([4]; methicillin-susceptible S. epidermidis): 5.9 × 10^3 ± 1.8 × 10^3 cfu/cm^2

- MIC (S. aureus; Staphylococcus aureus, Tobramycin resistant strains table, S. aureus SA-29213, read-out: NN MIC): 2 µg/mL
- Fold reduction of tobramycin MIC90 [5, 10]: 10 fold
SMILES: NC[C@H]1O[C@H](O[C@H]2[C@H](O)[C@@H](O[C@H]3O[C@H](CO)[C@@H](O)[C@H](N)[C@H]3O)[C@H](N)C[C@@H]2N)[C@H](N)C[C@@H]1O [Tobramycin]
- MBC (S. aureus; Staphylococcus aureus, Tobramycin resistant strains table, S. aureus SA-29213, read-out: NN MBC): 2 µg/mL
- Isolates rendered tobramycin sensitive [5]: seven of 10
- mean FIC [5, 10]: 0.48
- FICI, single-point BisEDT-antibiotic combination ([6]; MRSA 773): 0.78
- FICI, single-point BisEDT-antibiotic combination ([6]; SA 100): 0.73
- FICI, single-point BisEDT-antibiotic combination (Enterococcus faecalis): 0.47
- FICI, single-point BisEDT-antibiotic combination (Escherichia coli): 0.96
- FICI, single-point BisEDT-antibiotic combination (Klebsiella pneumoniae): 0.87
- FICI, single-point BisEDT-antibiotic combination (Pseudomonas aeruginosa): 1.29
- FICI, single-point BisEDT-antibiotic combination (Burkholderia cepacia): 0.91
- FICI, single-point BisEDT-antibiotic combination (Bukholderia multivorans): 0.67
- FICI, single-point BisEDT-antibiotic combination (Acinetobacter baumanii): 1.12
- FICI, single-point BisEDT-antibiotic combination [7]: 0.57

— patent publication US9408393B2, “Bismuth-thiols as antiseptics for agricultural, industrial and other uses” (Microbion Corporation, priority 2010, dated 2016)
